Results taken from publication PMC11859184, “Synthesis and Evaluation of ^68Ga- and ^177Lu-Labeled [diF-Pro^14]Bombesin(6−14) Analogs for Detection and Radioligand Therapy of Gastrin-Releasing Peptide Receptor-Expressing Cancer” (Pharmaceuticals, 2025).

Columns and labels:
PC-3 tumor-bearing mice [1] = test: Ex vivo biodistribution of 68Ga-labeled tracers in PC-3 tumor-bearing mice; conditions: 1 h pi; for reduction of average tumor uptake by co-injection of blocking agent: 100 µg blocking agent
Protocol: PET/CT imaging and biodistribution studies were conducted using male NOD.Cg-Rag1^tm1Mom Il2rg^tm1Wjl/SzJ (NRG) mice following previously published procedures. The studies were carried out in compliance with the guidelines established by the Canadian Council on Animal Care and approved by Animal Ethics Committee of the University of British Columbia (protocol number A20-0113, approved on 30 September 2022). The mice were anaesthetized and subcutaneously implanted with 5 × 10^6 PC-3 cells (100 µL; 1:1 PBS/Matrigel) behind the left shoulder. PET/CT imaging and biodistribution studies were performed once the tumors reached a diameter of 5–8 mm, typically after approximately 4 weeks of growth.
For ex vivo biodistribution studies, the mice were injected with the ^68Ga-labeled tracer (2–4 MBq) via a lateral caudal tail vein. For blocking [^68Ga]Ga-LW02060, the mice were co-injected with 100 μg of [D-Phe^6,Leu-NHEt^13,des-Met^14]Bombesin(6–14). For blocking [^68Ga]Ga-LW02080, the mice were co-injected with 100 μg of its nonradioactive standard Ga-LW02080. At 1 h pi, the mice were euthanized by CO2 inhalation. Blood and organs/tissues of interest were collected, weighed, and counted using a gamma counter.

[2] = In vivo stability study (radio-HPLC of plasma and urine); conditions: NRG mice, 15 min pi; for remaining intact in plasma: n = 3
Protocol: For in vivo stability studies, [^68Ga]Ga-LW02060 or [^68Ga]Ga -LW02080 (5.23–12.9 MBq) was injected into healthy male NRG mice (n = 3) tough a lateral caudal tail vein. At 15 min pi, mice were anaesthetized and euthanized, followed by collection of the urine and blood samples. The plasma was extracted from whole blood by adding an equal volume of CH3CN, followed by vortexing, centrifugation, and collection of the supernatant. The plasma and urine samples were analyzed via radio-HPLC.

PC-3 tumor-bearing mice [3] = test: Ex vivo biodistribution of 177Lu-labeled ligands in PC-3 tumor-bearing mice; conditions: 1 h pi, 100 µg [D-Phe6,Leu-NHEt13,des-Met14]Bombesin(6-14)
Protocol: SPECT/CT imaging was conducted using an MI Labs (Houten, The Netherlands) U-SPECT-II/CT scanner with a custom-made ultra-high sensitivity big mouse collimator (2 mm pinhole size) following published procedure. The experiments were obtained in accordance with the same protocol established in the PET/CT imaging and ex vivo biodistributions section. The mice were used for SPECT/CT imaging and ex vivo biodistributions studies once the tumors reached a diameter of 5–8 mm. PC-3 tumor-bearing mice were sedated (2.5% isoflurane in O2) and injected with 31.4–36.9 MBq of the ^177Lu-labeled ligand through a lateral caudal tail vein. The mouse was imaged at 1, 4, 24, 72, and 120 h pi. At each time point, a 5 min CT scan was performed with 615 μA and 60 kV parameters for localization and attenuation, followed by two 30 min static SPECT scans in list mode with an energy window centered around 208 keV. The U-SPECT II software was used to reconstruct data, and the images were decay corrected to the time of injection with PMOD v 3.402 (PMOD Technologies GmbH, Fallanden, Switzerland).
For ex vivo biodistribution studies, the mice were injected with ~3–5 MBq of the ^177Lu-labeled ligand (n = 5). At 1, 4, 24, 72, and 120 h post-injection, the mice were anesthetized with 2% isoflurane, euthanized by CO2 inhalation, and the tissues/organs of interest were […] for radioactivity counting. The blocking study was performed at 1 h pi via co-injection of the ^177Lu-labeled ligand with 100 μg of [D-Phe^6,Leu-NHEt^13,des-Met^14]Bombesin(6–14).

GRPR = target: T1, GRPR (Homo sapiens, UniProt P30550); test: Fluorometric intracellular calcium release assay using PC-3 cells; assay type: cell-based; conditions: 50 nM ligand, n = 4
T1 construct: host or cells: PC-3 cells
Protocol: The agonist/antagonist characteristics of LW02060, Ga-LW02060, Lu-LW02060, LW02080, Ga-LW02080, and Lu-LW02080 were determined following published procedures. The PC-3 cells were obtained from ATCC (via Cedarlane, Burlington, ON, Canada). A 96-well clear bottom black plate was seeded with 5 × 10^4 PC-3 cells in 100 μL growth media per well 24 h before the assay. The loading buffer (100 μL/well) containing a calcium-sensitive dye (FLIPR Calcium 6 assay kit from Molecular Devices, San Jose, CA, USA) was added into the 96-well plate, followed by 1 h incubation at 37 °C. The plate was then transferred into a FlexStation 3 microplate reader (Molecular Devices, San Jose, CA, USA). LW02060 (50 nM), Ga-LW02060 (50 nM), Lu-LW02060 (50 nM), LW02080 (50 nM), Ga-LW02080 (50 nM), Lu-LW02080 (50 nM), [D-Phe^6,Leu-NHEt^13,des-Met^14]Bombesin(6–14) (50 nM, antagonist control), bombesin (50 nM, agonist control), adenosine triphosphate (ATP, 50 nM, positive control), or DPBS (blank control) was added, and the fluorescent signals were measured for 2 min (λEx = 485 nm; λEm = 525 nm; n = 4). The relative fluorescent units (RFU = max − min) were calculated to determine the agonistic/antagonistic characteristics of LW02060, Ga-LW02060, Lu-LW02060, LW02080, Ga-LW02080, and Lu-LW02080, respectively.

T1 sequence (P30550 whole entry): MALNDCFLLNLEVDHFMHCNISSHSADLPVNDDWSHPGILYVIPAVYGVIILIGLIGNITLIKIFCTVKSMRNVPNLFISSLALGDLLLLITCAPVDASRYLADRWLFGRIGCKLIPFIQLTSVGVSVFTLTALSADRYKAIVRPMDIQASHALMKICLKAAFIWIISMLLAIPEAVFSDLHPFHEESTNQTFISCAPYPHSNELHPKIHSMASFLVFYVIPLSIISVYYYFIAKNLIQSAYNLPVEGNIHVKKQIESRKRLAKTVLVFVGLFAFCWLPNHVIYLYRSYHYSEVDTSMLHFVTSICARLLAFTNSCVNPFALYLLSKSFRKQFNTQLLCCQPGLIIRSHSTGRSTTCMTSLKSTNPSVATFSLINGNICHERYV

Compound | uptake in all other collected organs/tissues (except tumor xenografts and kidneys) (PC-3 tumor-bearing mice [1]) | intact tracer in urine [2] | remaining intact in plasma [2] | intracellular calcium release (GRPR) | reduction of average tumor uptake by co-injection of blocking agent (PC-3 tumor-bearing mice [1]) | reduction of tumor uptake by co-injection of blocking agent (PC-3 tumor-bearing mice [3]) | also measured
CC(C)C[C@@H](CN1CC(F)(F)C[C@H]1C(N)=O)NC(=O)[C@H](Cc1c[nH]cn1)NC(=O)CN(C)C(=O)[C@@H](NC(=O)[C@H](C)NC(=O)[C@H](Cc1c[nH]c2ccccc12)NC(=O)[C@H](CCC(N)=O)NC(=O)[C@@H](Cc1ccccc1)NC(=O)CN1CCC(NC(=O)CN2CCN(CC(=O)O)CCN(CC(=O)O)CCN(CC(=O)O)CC2)CC1)C(C)C [[^68Ga]Ga-LW02080] [metal not drawn] | lower than 1 %ID/g | No intact tracer was detected | 87.4 ± 5.34% | – | 77% | – | –
CC(C)C[C@H](NC(=O)[C@H](Cc1cnc[nH]1)N(C)C(=O)CNC(=O)[C@@H](NC(=O)[C@H](C)NC(=O)[C@H](Cc1c[nH]c2ccccc12)NC(=O)[C@H](CCC(N)=O)NC(=O)[C@@H](Cc1ccccc1)NC(=O)CN1CCC(NC(=O)CN2CCN(CC(=O)O)CCN(CC(=O)O)CCN(CC(=O)O)CC2)CC1)C(C)(C)C)C(=O)N1CC(F)(F)C[C@H]1C(N)=O [[^177Lu]Lu-LW02060] [metal not drawn] | – | – | – | – | – | 66% | reduction of pancreas uptake by co-injection of blocking agent (PC-3 tumor-bearing mice [3]): 81%; reduction of small intestine uptake by co-injection of blocking agent (PC-3 tumor-bearing mice [3]): 66%; reduction of stomach uptake by co-injection of blocking agent (PC-3 tumor-bearing mice [3]): 72%
CC(C)C[C@@H](CN1CC(F)(F)C[C@H]1C(N)=O)NC(=O)[C@H](Cc1c[nH]cn1)NC(=O)CN(C)C(=O)[C@@H](NC(=O)[C@H](C)NC(=O)[C@H](Cc1c[nH]c2ccccc12)NC(=O)[C@H](CCC(N)=O)NC(=O)[C@@H](Cc1ccccc1)NC(=O)CN1CCC(NC(=O)CN2CCN(CC(=O)O)CCN(CC(=O)O)CCN(CC(=O)O)CC2)CC1)C(C)C [[^177Lu]Lu-LW02080] [metal not drawn] | – | – | – | – | – | 64% | –
bombesin [reference compound] | – | – | – | 371 ± 17.9 RFU | – | – | –

Now from value to compound, other results behind:

uptake in all other collected organs/tissues (except tumor xenografts and kidneys) (PC-3 tumor-bearing mice [1]) | intact tracer in urine [2] | remaining intact in plasma [2] | intracellular calcium release (GRPR) | Compound | reduction of average tumor uptake by co-injection of blocking agent (PC-3 tumor-bearing mice [1]) | reduction of tumor uptake by co-injection of blocking agent (PC-3 tumor-bearing mice [3]) | also measured
lower than 1 %ID/g | No intact tracer was detected | > 99% | – | CC(C)C[C@H](NC(=O)[C@H](Cc1cnc[nH]1)N(C)C(=O)CNC(=O)[C@@H](NC(=O)[C@H](C)NC(=O)[C@H](Cc1c[nH]c2ccccc12)NC(=O)[C@H](CCC(N)=O)NC(=O)[C@@H](Cc1ccccc1)NC(=O)CN1CCC(NC(=O)CN2CCN(CC(=O)O)CCN(CC(=O)O)CCN(CC(=O)O)CC2)CC1)C(C)(C)C)C(=O)N1CC(F)(F)C[C@H]1C(N)=O [[^68Ga]Ga-LW02060] [metal not drawn] | 64% | – | tumor uptake relative to [68Ga]Ga-LW02080 (PC-3 tumor-bearing mice [1]): 2.3 fold; tumor uptake relative to previously reported [68Ga]Ga-LW02056 (PC-3 tumor-bearing mice [1]): 1.9 fold
– | – | – | 16.6 ± 3.84 RFU | [D-Phe^6,Leu-NHEt^13,des-Met^14]Bombesin(6–14) [reference compound] | – | – | –
